Experimental data taken from BigSolDB 2.1.

COC(=O)N(OC)c1ccccc1COc1ccn(-c2ccc(Cl)cc2)n1
solubility (mole fraction)
Details	283.15 K	288.15 K	293.15 K	298.15 K	303.15 K	308.15 K
in cyclohexane	0.000942	0.00148	0.00217	0.00311	0.00448	0.00609
in ethanol	0.00458	0.00601	0.00866	0.0117	0.0184	0.0326
in isobutanol	0.00283	0.00377	0.00527	0.00758	0.0115	0.0186
in isopropanol	0.00248	0.00332	0.00481	0.00687	0.0102	0.0163
in n-butanol	0.00534	0.00663	0.00916	0.0132	0.0214	0.0343
